# “Also recorded” adds a separate entry of the source. Marks after values point to notes of the source that are not given here.
# Key:
# [1] = target: butyryl cholinesterase (BChE) (Homo sapiens, UniProt P06276); assay: butyryl cholinesterase inhibition assay; assay type: biochemical; conditions: for activity against BChE enzyme (in words): compared with eserine; for inhibition at 500 µM: read-out: BChE inhibition (%) at 0.5 mM
# α-glucosidase = α-glucosidase (Saccharomyces cerevisiae, UniProt P53341); conditions: for activity against α-glucosidase enzyme (in words): compared with acarbose
# Chain of α-glucosidase (P53341 whole entry): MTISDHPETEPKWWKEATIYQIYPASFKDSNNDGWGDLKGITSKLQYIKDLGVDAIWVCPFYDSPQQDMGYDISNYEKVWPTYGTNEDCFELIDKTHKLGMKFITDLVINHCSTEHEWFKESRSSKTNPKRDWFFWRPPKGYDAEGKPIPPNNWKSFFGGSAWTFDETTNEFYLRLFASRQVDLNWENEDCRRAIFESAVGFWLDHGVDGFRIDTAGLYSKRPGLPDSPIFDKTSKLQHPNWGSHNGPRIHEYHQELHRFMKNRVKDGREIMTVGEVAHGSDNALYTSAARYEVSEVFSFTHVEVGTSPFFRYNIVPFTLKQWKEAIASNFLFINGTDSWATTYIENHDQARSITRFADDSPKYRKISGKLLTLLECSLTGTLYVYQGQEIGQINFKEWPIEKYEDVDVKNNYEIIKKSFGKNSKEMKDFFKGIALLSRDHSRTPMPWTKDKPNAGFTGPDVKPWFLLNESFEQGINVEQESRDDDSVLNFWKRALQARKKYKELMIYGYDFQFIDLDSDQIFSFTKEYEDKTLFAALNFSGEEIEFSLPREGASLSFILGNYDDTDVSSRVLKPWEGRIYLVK
# Chain of butyryl cholinesterase (BChE) (P06276 29-602, species assumed): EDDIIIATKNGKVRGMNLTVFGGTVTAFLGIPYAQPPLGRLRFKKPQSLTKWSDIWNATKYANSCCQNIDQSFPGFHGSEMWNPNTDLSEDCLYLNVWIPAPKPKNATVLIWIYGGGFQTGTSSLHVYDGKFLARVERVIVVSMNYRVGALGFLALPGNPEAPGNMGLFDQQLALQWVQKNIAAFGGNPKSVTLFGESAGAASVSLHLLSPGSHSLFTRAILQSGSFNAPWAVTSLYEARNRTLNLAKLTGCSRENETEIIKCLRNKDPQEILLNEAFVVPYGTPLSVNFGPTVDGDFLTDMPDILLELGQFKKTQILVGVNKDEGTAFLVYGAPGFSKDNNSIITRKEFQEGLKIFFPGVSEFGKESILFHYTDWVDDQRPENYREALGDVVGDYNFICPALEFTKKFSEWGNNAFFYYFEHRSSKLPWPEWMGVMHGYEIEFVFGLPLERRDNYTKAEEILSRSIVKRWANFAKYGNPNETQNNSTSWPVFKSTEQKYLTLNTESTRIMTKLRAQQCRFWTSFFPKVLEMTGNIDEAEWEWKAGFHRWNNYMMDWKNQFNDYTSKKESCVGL
"α-glucosidase inhibition (%) at 0.5 mM (α-glucosidase; 0.5 mM, mean ± SEM, triplicate)",SMILES,IC50 [1],activity against BChE enzyme (in words) [1],inhibition at 500 µM [1],activity against α-glucosidase enzyme (in words) (α-glucosidase)
,"Cc1cccc(NC(=O)CSc2nnc(C3CCCN(S(=O)(=O)c4ccccc4)C3)o2)c1C (stereo not shown) [7a, N-(2,3-Dimethylphenyl)-2-{5-[1-(phenylsulfonyl)piperidin-3-yl]-1,3,4-oxadiazol-2-ylthio}acetamide]",284.5 ± 0.13 µM,least active; also recorded: BChE inhibitors,75.32 ± 0.35%,
,"Cc1ccc(NC(=O)CSc2nnc(C3CCCN(S(=O)(=O)c4ccccc4)C3)o2)c(C)c1 (stereo not shown) [7b, N-(2,4-Dimethylphenyl)-2-{5-[1-(phenylsulfonyl)piperidin-3-yl]-1,3,4-oxadiazol-2-ylthio}acetamide]",283.3 ± 0.17 µM,least active; also recorded: BChE inhibitors,76.51 ± 0.44%,
,"Cc1ccc(C)c(NC(=O)CSc2nnc(C3CCCN(S(=O)(=O)c4ccccc4)C3)o2)c1 (stereo not shown) [7c, N-(2,5-Dimethylphenyl)-2-{5-[1-(phenylsulfonyl)piperidin-3-yl]-1,3,4-oxadiazol-2-ylthio}acetamide]",,,40.76 ± 0.27%,
,"Cc1cccc(C)c1NC(=O)CSc1nnc(C2CCCN(S(=O)(=O)c3ccccc3)C2)o1 (stereo not shown) [7d, N-(2,6-Dimethylphenyl)-2-{5-[1-(phenylsulfonyl)piperidin-3-yl]-1,3,4-oxadiazol-2-ylthio}acetamide]",,,48.51 ± 0.15%,least activity
,"Cc1cc(C)cc(NC(=O)CSc2nnc(C3CCCN(S(=O)(=O)c4ccccc4)C3)o2)c1 (stereo not shown) [7e, N-(3,5-Dimethylphenyl)-2-{5-[1-(phenylsulfonyl)piperidin-3-yl]-1,3,4-oxadiazol-2-ylthio}acetamide]",375.4 ± 0.12 µM,least active; also recorded: BChE inhibitors,66.82 ± 0.32%,most active; also recorded: comparable activity to that of reference
,"Cc1ccccc1NC(=O)CSc1nnc(C2CCCN(S(=O)(=O)c3ccccc3)C2)o1 (stereo not shown) [7f, 2-{5-[1-(Phenylsulfonyl)piperidin-3-yl]-1,3,4-oxadiazol-2-ylthio}-N-o-tolylacetamide]",,,47.23 ± 0.14%,
,"Cc1ccc(NC(=O)CSc2nnc(C3CCCN(S(=O)(=O)c4ccccc4)C3)o2)cc1 (stereo not shown) [7g, 2-{5-[1-(Phenylsulfonyl)piperidin-3-yl]-1,3,4-oxadiazol-2-ylthio}-N-p-tolylacetamide]",,,46.75 ± 0.18%,
,"COC(=O)c1ccccc1NC(=O)CSc1nnc(C2CCCN(S(=O)(=O)c3ccccc3)C2)o1 (stereo not shown) [7h, Methyl 2-(2-(5-(1-(Phenylsulfonyl)piperidin-3-yl)-1,3,4-oxadiazol-2-ylthio)acetamido)benzoate]",,,35.52 ± 0.23%,
,"COc1ccc(Cl)cc1NC(=O)CSc1nnc(C2CCCN(S(=O)(=O)c3ccccc3)C2)o1 (stereo not shown) [7i, N-(5-Chloro-2-methoxyphenyl)-2-{5-[1-(phenylsulfonyl)piperidin-3-yl]-1,3,4-oxadiazol-2-ylthio}acetamide]",,,38.81 ± 0.17%,second most active
,"O=C(CSc1nnc(C2CCCN(S(=O)(=O)c3ccccc3)C2)o1)NCCc1ccccc1 (stereo not shown) [7j, N-Phenethyl-2-{5-[1-(phenylsulfonyl)piperidin-3-yl]-1,3,4-oxadiazol-2-ylthio}acetamide]",12.15 ± 0.09 µM,highest inhibition potential; also recorded: most active,97.93 ± 0.38%,
,"CCc1ccccc1NC(=O)CSc1nnc(C2CCCN(S(=O)(=O)c3ccccc3)C2)o1 (stereo not shown) [7k, N-(2-Ethylphenyl)-2-{5-[1-(phenylsulfonyl)piperidin-3-yl]-1,3,4-oxadiazol-2-ylthio}acetamide]",,,44.24 ± 0.32%,least activity
,"CCc1ccc(NC(=O)CSc2nnc(C3CCCN(S(=O)(=O)c4ccccc4)C3)o2)cc1 (stereo not shown) [7l, N-(4-Ethylphenyl)-2-{5-[1-(phenylsulfonyl)piperidin-3-yl]-1,3,4-oxadiazol-2-ylthio}acetamide]",274.6 ± 0.13 µM,least active; also recorded: BChE inhibitors,93.71 ± 0.28%,
,"CCOc1ccc(NC(=O)CSc2nnc(C3CCCN(S(=O)(=O)c4ccccc4)C3)o2)cc1 (stereo not shown) [7m, N-(4-Ethoxyphenyl)-2-{5-[1-(phenylsulfonyl)piperidin-3-yl]-1,3,4-oxadiazol-2-ylthio}acetamide]",328.1 ± 0.18 µM,least active; also recorded: BChE inhibitors,72.41 ± 0.17%,
,"CCOc1ccccc1NC(=O)CSc1nnc(C2CCCN(S(=O)(=O)c3ccccc3)C2)o1 (stereo not shown) [7n, N-(2-Ethoxyphenyl)-2-{5-[1-(phenylsulfonyl)piperidin-3-yl]-1,3,4-oxadiazol-2-ylthio}acetamide]",,,43.72 ± 0.15%,
,"CCc1cccc(C)c1NC(=O)CSc1nnc(C2CCCN(S(=O)(=O)c3ccccc3)C2)o1 (stereo not shown) [7o, N-(2-Ethyl-6-methylphenyl)-2-{5-[1-(phenylsulfonyl)piperidin-3-yl]-1,3,4-oxadiazol-2-ylthio}acetamide]",,,38.31 ± 0.29%,
,"O=C(CSc1nnc(C2CCCN(S(=O)(=O)c3ccccc3)C2)o1)NC1CCCCC1 (stereo not shown) [7p, N-Cyclohexyl-2-{5-[1-(phenylsulfonyl)piperidin-3-yl]-1,3,4-oxadiazol-2-ylthio}acetamide]",,,26.5 ± 0.39%,least activity
,"COc1ccccc1NC(=O)CSc1nnc(C2CCCN(S(=O)(=O)c3ccccc3)C2)o1 (stereo not shown) [7q, N-(2-Methoxyphenyl)-2-{5-[1-(phenylsulfonyl)piperidin-3-yl]-1,3,4-oxadiazol-2-ylthio}acetamide]",,,36.32 ± 0.16%,
,"O=C(CSc1nnc(C2CCCN(S(=O)(=O)c3ccccc3)C2)o1)NCc1ccccc1 (stereo not shown) [7r, N-Benzyl-2-{5-[1-(phenylsulfonyl)piperidin-3-yl]-1,3,4-oxadiazol-2-ylthio}acetamide]",,,37.7 ± 0.48%,least activity
,"Cc1cccc([N+](=O)[O-])c1NC(=O)CSc1nnc(C2CCCN(S(=O)(=O)c3ccccc3)C2)o1 (stereo not shown) [7s, N-(2-Methyl-6-nitrophenyl)-2-{5-[1-(phenylsulfonyl)piperidin-3-yl]-1,3,4-oxadiazol-2-ylthio}acetamide]",123.3 ± 0.15 µM,moderately high inhibition potential,67.19 ± 0.39%,
92.23±0.14^a %,"C[C@H]1O[C@H](O[C@H]2[C@H](O)[C@@H](O)[C@@H](O[C@H]3[C@H](O)[C@@H](O)C(O)O[C@@H]3CO)O[C@@H]2CO)[C@H](O)[C@@H](O)[C@@H]1N[C@H]1C=C(CO)[C@@H](O)[C@H](O)[C@H]1O (stereo partly shown) [acarbose, reference compound]",,,,
